Source: patent US20080299062A1, “Use of Oxocarboxylic Acids-Containing Combinations for Deodorization” (priority 2004, published 2008)

Experiments:
[1] = Odor of permanently waved hair strands, leave-on method (base: conditioner); conditions: for Odor rating vs blank, Day 1, pH 2-3 / Odor rating vs blank, Day 1, pH 4-5 / Odor rating vs blank, Day 2, pH 2-3 / Odor rating vs blank, Day 2, pH 4-5 / Odor rating vs blank, Day 3, pH 2-3 / Odor rating vs blank, Day 3, pH 4-5 / Odor rating vs blank, Day 4, pH 2-3 / Odor rating vs blank, Day 4, pH 4-5: test substance 0.01 wt. %; for Odor rating vs blank, Day 1, pH 2-3 / Odor rating vs blank, Day 1, pH 4-5: Day 1, wet; for Odor rating vs blank, Day 1, pH 2-3 / Odor rating vs blank, Day 2, pH 2-3 / Odor rating vs blank, Day 3, pH 2-3 / Odor rating vs blank, Day 4, pH 2-3: pH 2-3, each symbol = one test strand; for Odor rating vs blank, Day 1, pH 4-5 / Odor rating vs blank, Day 2, pH 4-5 / Odor rating vs blank, Day 3, pH 4-5 / Odor rating vs blank, Day 4, pH 4-5: pH 4-5, each symbol = one test strand; for Odor rating vs blank, Day 2, pH 2-3 / Odor rating vs blank, Day 2, pH 4-5: Day 2, dry; for Odor rating vs blank, Day 3, pH 2-3 / Odor rating vs blank, Day 3, pH 4-5: Day 3, wet; for Odor rating vs blank, Day 4, pH 2-3 / Odor rating vs blank, Day 4, pH 4-5: Day 4, dry; for odor-reducing action (efficacy), in words: pH 2-3 and pH 4-5, summary of Table 1
Method: The test substances were tested on hair that had been freshly permanently waved. To this end, hair braids were cut into 2.5-cm pieces, bleached for 30 minutes and washed with perfume-free shampoo. To obtain fully odorless strands, the strands were then dipped three times into a mixture of isopropanol 25%/ethanol 25%/water 50%. The hair was kept for 24 hours in a conditioning room (20° C. at 85% relative humidity) and then cut to a weight of 2 g. This was followed by an odor test. Ten strands per post-treatment agent to be tested were wound onto rollers (diameter: 13 mm) and kept overnight in the conditioning room (20° C. at 85% relative humidity). The next morning, these strands were subjected to permanent waving.
Ten rollers holding 2 g of hair each were placed in a crystallizing dish and covered twice with 20 g of a commercial wave lotion, the rollers being turned over after the first 20 g to ensure uniform distribution. The rollers were then placed in a drier at 40° C. for 15 min, after which they were rinsed with water for 5 minutes namely for 2 min under running city water and for an additional 3 min by immersing them in water. The hair was then dabbed dry with a paper napkin. Afterward, the fixation was carried out with the aid of a commercial foam fixative. To this end, the rollers were immersed for 3 min in 500 mL of fixing solution. Excess fixing solution was then poured off, and the rollers were allowed to stand for an additional 7 minutes. They were then again rinsed with water for 5 min (see above) and dabbed dry with a paper napkin. Finally, the hair was detached from the roller and placed in a drier at 40° C. for 60 minutes.
To test the efficacy of the compounds as permanent wave post-treatment agents, the zinc salts and the corresponding zinc-free acids alone were incorporated at two different pH values into common cosmetic product bases. Zinc citrate (trizinc dicitrate) made soluble with a slight excess of citric acid was tested as the reference substance for a zinc salt without the odor-influencing counterion. The oxocarboxylic acids were used both as the sodium salts and in the form of their zinc salts. The pH values were then adjusted with citric acid or NaOH.
In the following example, 0.5 mL of a leave-on conditioner was massaged into the freshly permanently waved hair (2 g in each case), and after a contact time of 10 min the odor was evaluated by five test subjects (Table 1). In each case, the odor evaluation was performed on 3 test strands. The average values of the evaluation results are tabulated.
Each symbol stands for one test strand. • ◯=odor indistinguishable from that of blank • +=odor better than that of blank • ++=odor appreciably better than that of blank/odorless

[2] = Odor of permanently waved hair strands, rinse-off method (base: hair-cure agent); conditions: for Odor rating vs blank, Day 1, pH 2-3 / Odor rating vs blank, Day 1, pH 4-5 / Odor rating vs blank, Day 2, pH 2-3 / Odor rating vs blank, Day 2, pH 4-5 / Odor rating vs blank, Day 3, pH 2-3 / Odor rating vs blank, Day 3, pH 4-5 / Odor rating vs blank, Day 4, pH 2-3 / Odor rating vs blank, Day 4, pH 4-5: rinse-off hair-cure agent, 5-min contact, table head 0.01 wt. % (text b103: 0.1 wt. %), each symbol = one test strand; for Odor rating vs blank, Day 1, pH 2-3 / Odor rating vs blank, Day 1, pH 4-5: Day 1, wet; for Odor rating vs blank, Day 2, pH 2-3 / Odor rating vs blank, Day 2, pH 4-5: Day 2, dry; for Odor rating vs blank, Day 3, pH 2-3 / Odor rating vs blank, Day 3, pH 4-5: Day 3, wet; for Odor rating vs blank, Day 4, pH 2-3 / Odor rating vs blank, Day 4, pH 4-5: Day 4, dry
[3] = Various odor tests carried out on permanently waved hair (general statements); conditions: sulfur odor of permanently waved hair; general statement

Compound	Odor rating vs blank, Day 1, pH 2-3 [1]	Odor rating vs blank, Day 1, pH 4-5 [1]	Odor rating vs blank, Day 2, pH 2-3 [1]	Odor rating vs blank, Day 2, pH 4-5 [1]	Odor rating vs blank, Day 3, pH 2-3 [1]	Odor rating vs blank, Day 3, pH 4-5 [1]	Odor rating vs blank, Day 4, pH 2-3 [1]	Odor rating vs blank, Day 4, pH 4-5 [1]	Odor rating vs blank, Day 1, pH 2-3 [2]	Odor rating vs blank, Day 1, pH 4-5 [2]	Odor rating vs blank, Day 2, pH 2-3 [2]	Odor rating vs blank, Day 2, pH 4-5 [2]	Odor rating vs blank, Day 3, pH 2-3 [2]	Odor rating vs blank, Day 3, pH 4-5 [2]	Odor rating vs blank, Day 4, pH 2-3 [2]	Odor rating vs blank, Day 4, pH 4-5 [2]	odor-reducing action (efficacy), in words [1]	odor-reducing effect, in words ([2]; lowest concentrations in rinse-off products, applied immediately after permanent wave treatment or up to four days later)	odor-reducing effect on permanently waved hair, in words [3]
CC(=O)C(=O)[O-].CC(=O)C(=O)[O-].[Zn+2] [Zn pyruvate]	∘ + ∘	+ + +	∘ ∘ ∘	+ + +	∘ ∘ ∘	∘ + +	∘ ∘ ∘	+ + +	∘ ∘ ∘	∘ + ∘	∘ ∘ ∘	+ ∘ +	∘ ∘ ∘	∘ + +	∘ ∘ ∘	+ + +			
CC(=O)C(=O)[O-].[Na+] [Na pyruvate]	+ ∘ +	∘ ∘ +	∘ + ∘	∘ + ∘	∘ + +	∘ + +	∘ + +	+ + ∘	∘∘ +	∘ + +	∘ + +	∘ + +	∘ + +	∘ + +	∘ + +	∘ + +			
O=C([O-])CC(O)(CC(=O)[O-])C(=O)[O-].O=C([O-])CC(O)(CC(=O)[O-])C(=O)[O-].[Zn+2].[Zn+2].[Zn+2] [Trizinc dicitrate, trizinc dicitrate]	+ ∘ ∘	∘ + +	∘ + ∘	∘ + +	∘ ∘ +	∘ + +	∘ + ∘	+ + +	∘ ∘ ∘	∘ ∘ +	+ ∘ ∘	∘ + +	∘ ∘ +	∘ + +	∘ ∘ +	∘ + +			
zinc levulinate [Zn levulinate]	+ + +	++ ++ and ++	+ + +	+ + ++	+ + +	++ ++ and ++	+ + +	+ ++ and ++	+ + +	++ ++ and ++	+ + +	+ + +	+ + +	+ + +	+ + +	++ + ++	unique in the entire pH range tested	drastic odor-reducing effect	much more intense than that of any other zinc compound
O=CC(=O)[O-].O=CC(=O)[O-].[Zn+2] [Zn glyoxylate]	∘ + +	+ ∘ ∘	∘ ∘ ∘	∘ + +	∘ ∘ +	+ ∘ +	∘ ∘ +	+ + ∘	∘ ∘ ∘	∘ + +	∘ ∘ ∘	+ ∘ +	∘ ∘ +	+ + ∘	∘ ∘ +	∘ + +			
CC(=O)CCC(=O)[O-].[Na+] [Na levulinate]	+ + +	+ ∘ +	+ + +	+ ∘ +	∘ + +	+ + ∘	+ + +	+ + +	+ + +	+ ∘ +	+ + ∘	+ ∘ ∘	∘ + +	+ ∘ ∘	∘ ∘ +	+ ∘ ∘			
O=CC(=O)[O-].[Na+] [Na glyoxylate]	∘ + +	∘ + ∘	+ + ∘	+ + ∘	∘ ∘ +	∘ + +	∘ + +	+ ∘ +	∘ ∘ ∘	∘ ∘ ∘	+ ∘ +	+ ∘ +	∘ ∘ +	+ + ∘	∘ + +	∘ + +			
CC(=O)CCC(=O)O [levulinic acid, 4-oxopentanoic acid]																	some odor-reducing action in strong acids		effective odor reducer
